{"source": "the NIST ThermoML archive (doi:10.1016/j.jct.2016.03.001)", "assay": "molar heat capacity at constant pressure", "details": "101.33 kPa, Crystal, Small sample (50 mg) DSC", "note": "Numbers after ± are expanded uncertainties.", "data": [{"compound": "O=[PH](O)O", "note": "[phosphonic acid]", "values": [{"measurement": "molar heat capacity at constant pressure", "setting": "243.2 K", "value": "48.3 ± 1.1", "unit": "J/K/mol"}, {"measurement": "molar heat capacity at constant pressure", "setting": "244.2 K", "value": "48.54 ± 1.2", "unit": "J/K/mol"}, {"measurement": "molar heat capacity at constant pressure", "setting": "245.2 K", "value": "48.62 ± 1.2", "unit": "J/K/mol"}, {"measurement": "molar heat capacity at constant pressure", "setting": "246.2 K", "value": "48.87 ± 1.2", "unit": "J/K/mol"}, {"measurement": "molar heat capacity at constant pressure", "setting": "247.2 K", "value": "49.03 ± 1.2", "unit": "J/K/mol"}, {"measurement": "molar heat capacity at constant pressure", "setting": "248.2 K", "value": "49.36 ± 1.2", "unit": "J/K/mol"}, {"measurement": "molar heat capacity at constant pressure", "setting": "249.2 K", "value": "49.69 ± 1.2", "unit": "J/K/mol"}, {"measurement": "molar heat capacity at constant pressure", "setting": "250.2 K", "value": "49.77 ± 1.2", "unit": "J/K/mol"}, {"measurement": "molar heat capacity at constant pressure", "setting": "251.2 K", "value": "50.1 ± 1.2", "unit": "J/K/mol"}, {"measurement": "molar heat capacity at constant pressure", "setting": "252.2 K", "value": "50.35 ± 1.2", "unit": "J/K/mol"}, {"measurement": "molar heat capacity at constant pressure", "setting": "253.2 K", "value": "50.59 ± 1.2", "unit": "J/K/mol"}, {"measurement": "molar heat capacity at constant pressure", "setting": "254.2 K", "value": "50.59 ± 1.2", "unit": "J/K/mol"}, {"measurement": "molar heat capacity at constant pressure", "setting": "255.2 K", "value": "50.84 ± 1.2", "unit": "J/K/mol"}, {"measurement": "molar heat capacity at constant pressure", "setting": "256.2 K", "value": "51 ± 1.2", "unit": "J/K/mol"}, {"measurement": "molar heat capacity at constant pressure", "setting": "257.2 K", "value": "51.08 ± 1.2", "unit": "J/K/mol"}, {"measurement": "molar heat capacity at constant pressure", "setting": "258.2 K", "value": "51.17 ± 1.2", "unit": "J/K/mol"}, {"measurement": "molar heat capacity at constant pressure", "setting": "259.2 K", "value": "51.33 ± 1.2", "unit": "J/K/mol"}, {"measurement": "molar heat capacity at constant pressure", "setting": "260.2 K", "value": "51.49 ± 1.2", "unit": "J/K/mol"}, {"measurement": "molar heat capacity at constant pressure", "setting": "261.2 K", "value": "51.9 ± 1.3", "unit": "J/K/mol"}, {"measurement": "molar heat capacity at constant pressure", "setting": "262.2 K", "value": "52.15 ± 1.3", "unit": "J/K/mol"}, {"measurement": "molar heat capacity at constant pressure", "setting": "263.2 K", "value": "52.48 ± 1.3", "unit": "J/K/mol"}, {"measurement": "molar heat capacity at constant pressure", "setting": "264.2 K", "value": "52.72 ± 1.3", "unit": "J/K/mol"}, {"measurement": "molar heat capacity at constant pressure", "setting": "265.2 K", "value": "52.97 ± 1.3", "unit": "J/K/mol"}, {"measurement": "molar heat capacity at constant pressure", "setting": "266.2 K", "value": "53.22 ± 1.3", "unit": "J/K/mol"}, {"measurement": "molar heat capacity at constant pressure", "setting": "267.2 K", "value": "53.54 ± 1.3", "unit": "J/K/mol"}, {"measurement": "molar heat capacity at constant pressure", "setting": "268.2 K", "value": "53.87 ± 1.3", "unit": "J/K/mol"}, {"measurement": "molar heat capacity at constant pressure", "setting": "269.2 K", "value": "54.2 ± 1.3", "unit": "J/K/mol"}, {"measurement": "molar heat capacity at constant pressure", "setting": "270.2 K", "value": "54.28 ± 1.3", "unit": "J/K/mol"}, {"measurement": "molar heat capacity at constant pressure", "setting": "271.2 K", "value": "54.45 ± 1.3", "unit": "J/K/mol"}, {"measurement": "molar heat capacity at constant pressure", "setting": "272.2 K", "value": "54.69 ± 1.3", "unit": "J/K/mol"}, {"measurement": "molar heat capacity at constant pressure", "setting": "273.2 K", "value": "54.86 ± 1.3", "unit": "J/K/mol"}, {"measurement": "molar heat capacity at constant pressure", "setting": "274.2 K", "value": "55.35 ± 1.4", "unit": "J/K/mol"}, {"measurement": "molar heat capacity at constant pressure", "setting": "275.2 K", "value": "55.76 ± 1.4", "unit": "J/K/mol"}, {"measurement": "molar heat capacity at constant pressure", "setting": "276.2 K", "value": "57.81 ± 1.4", "unit": "J/K/mol"}, {"measurement": "molar heat capacity at constant pressure", "setting": "277.2 K", "value": "58.46 ± 1.4", "unit": "J/K/mol"}, {"measurement": "molar heat capacity at constant pressure", "setting": "278.2 K", "value": "57.32 ± 1.4", "unit": "J/K/mol"}, {"measurement": "molar heat capacity at constant pressure", "setting": "279.2 K", "value": "56.91 ± 1.4", "unit": "J/K/mol"}, {"measurement": "molar heat capacity at constant pressure", "setting": "280.2 K", "value": "57.15 ± 1.4", "unit": "J/K/mol"}, {"measurement": "molar heat capacity at constant pressure", "setting": "281.2 K", "value": "57.32 ± 1.4", "unit": "J/K/mol"}, {"measurement": "molar heat capacity at constant pressure", "setting": "282.2 K", "value": "57.56 ± 1.4", "unit": "J/K/mol"}, {"measurement": "molar heat capacity at constant pressure", "setting": "283.2 K", "value": "57.81 ± 1.4", "unit": "J/K/mol"}, {"measurement": "molar heat capacity at constant pressure", "setting": "284.2 K", "value": "57.64 ± 1.4", "unit": "J/K/mol"}, {"measurement": "molar heat capacity at constant pressure", "setting": "285.2 K", "value": "57.64 ± 1.4", "unit": "J/K/mol"}, {"measurement": "molar heat capacity at constant pressure", "setting": "286.2 K", "value": "57.89 ± 1.4", "unit": "J/K/mol"}, {"measurement": "molar heat capacity at constant pressure", "setting": "287.2 K", "value": "58.87 ± 1.5", "unit": "J/K/mol"}, {"measurement": "molar heat capacity at constant pressure", "setting": "288.2 K", "value": "60.18 ± 1.5", "unit": "J/K/mol"}, {"measurement": "molar heat capacity at constant pressure", "setting": "289.2 K", "value": "60.02 ± 1.5", "unit": "J/K/mol"}, {"measurement": "molar heat capacity at constant pressure", "setting": "290.2 K", "value": "60.02 ± 1.5", "unit": "J/K/mol"}, {"measurement": "molar heat capacity at constant pressure", "setting": "291.2 K", "value": "60.1 ± 1.5", "unit": "J/K/mol"}, {"measurement": "molar heat capacity at constant pressure", "setting": "292.2 K", "value": "60.59 ± 1.5", "unit": "J/K/mol"}, {"measurement": "molar heat capacity at constant pressure", "setting": "293.2 K", "value": "61.09 ± 1.5", "unit": "J/K/mol"}, {"measurement": "molar heat capacity at constant pressure", "setting": "294.2 K", "value": "61 ± 1.5", "unit": "J/K/mol"}, {"measurement": "molar heat capacity at constant pressure", "setting": "295.2 K", "value": "61.09 ± 1.5", "unit": "J/K/mol"}, {"measurement": "molar heat capacity at constant pressure", "setting": "296.2 K", "value": "61.5 ± 1.5", "unit": "J/K/mol"}, {"measurement": "molar heat capacity at constant pressure", "setting": "297.2 K", "value": "61.58 ± 1.5", "unit": "J/K/mol"}, {"measurement": "molar heat capacity at constant pressure", "setting": "298.2 K", "value": "62.07 ± 1.6", "unit": "J/K/mol"}, {"measurement": "molar heat capacity at constant pressure", "setting": "299.2 K", "value": "62.48 ± 1.6", "unit": "J/K/mol"}, {"measurement": "molar heat capacity at constant pressure", "setting": "300.2 K", "value": "62.81 ± 1.6", "unit": "J/K/mol"}, {"measurement": "molar heat capacity at constant pressure", "setting": "301.2 K", "value": "63.38 ± 1.6", "unit": "J/K/mol"}, {"measurement": "molar heat capacity at constant pressure", "setting": "302.2 K", "value": "63.63 ± 1.6", "unit": "J/K/mol"}, {"measurement": "molar heat capacity at constant pressure", "setting": "303.2 K", "value": "64.45 ± 1.6", "unit": "J/K/mol"}, {"measurement": "molar heat capacity at constant pressure", "setting": "304.2 K", "value": "64.94 ± 1.6", "unit": "J/K/mol"}, {"measurement": "molar heat capacity at constant pressure", "setting": "305.2 K", "value": "65.35 ± 1.6", "unit": "J/K/mol"}, {"measurement": "molar heat capacity at constant pressure", "setting": "306.2 K", "value": "65.76 ± 1.6", "unit": "J/K/mol"}, {"measurement": "molar heat capacity at constant pressure", "setting": "307.2 K", "value": "66.33 ± 1.6", "unit": "J/K/mol"}, {"measurement": "molar heat capacity at constant pressure", "setting": "308.2 K", "value": "66.74 ± 1.6", "unit": "J/K/mol"}, {"measurement": "molar heat capacity at constant pressure", "setting": "309.2 K", "value": "67.4 ± 1.6", "unit": "J/K/mol"}, {"measurement": "molar heat capacity at constant pressure", "setting": "310.2 K", "value": "67.65 ± 1.6", "unit": "J/K/mol"}, {"measurement": "molar heat capacity at constant pressure", "setting": "311.2 K", "value": "68.06 ± 1.6", "unit": "J/K/mol"}, {"measurement": "molar heat capacity at constant pressure", "setting": "312.2 K", "value": "68.71 ± 1.7", "unit": "J/K/mol"}, {"measurement": "molar heat capacity at constant pressure", "setting": "313.2 K", "value": "69.37 ± 1.7", "unit": "J/K/mol"}, {"measurement": "molar heat capacity at constant pressure", "setting": "314.2 K", "value": "70.11 ± 1.7", "unit": "J/K/mol"}, {"measurement": "molar heat capacity at constant pressure", "setting": "315.2 K", "value": "70.35 ± 1.7", "unit": "J/K/mol"}, {"measurement": "molar heat capacity at constant pressure", "setting": "316.2 K", "value": "71.09 ± 1.7", "unit": "J/K/mol"}, {"measurement": "molar heat capacity at constant pressure", "setting": "317.2 K", "value": "71.66 ± 1.7", "unit": "J/K/mol"}, {"measurement": "molar heat capacity at constant pressure", "setting": "318.2 K", "value": "72.48 ± 1.8", "unit": "J/K/mol"}, {"measurement": "molar heat capacity at constant pressure", "setting": "319.2 K", "value": "73.22 ± 1.8", "unit": "J/K/mol"}, {"measurement": "molar heat capacity at constant pressure", "setting": "320.2 K", "value": "73.88 ± 1.8", "unit": "J/K/mol"}, {"measurement": "molar heat capacity at constant pressure", "setting": "321.2 K", "value": "75.03 ± 1.8", "unit": "J/K/mol"}, {"measurement": "molar heat capacity at constant pressure", "setting": "322.2 K", "value": "75.93 ± 1.9", "unit": "J/K/mol"}, {"measurement": "molar heat capacity at constant pressure", "setting": "323.2 K", "value": "77.24 ± 1.9", "unit": "J/K/mol"}, {"measurement": "molar heat capacity at constant pressure", "setting": "324.2 K", "value": "78.55 ± 1.9", "unit": "J/K/mol"}, {"measurement": "molar heat capacity at constant pressure", "setting": "325.2 K", "value": "80.44 ± 2", "unit": "J/K/mol"}, {"measurement": "molar heat capacity at constant pressure", "setting": "326.2 K", "value": "81.91 ± 2", "unit": "J/K/mol"}, {"measurement": "molar heat capacity at constant pressure", "setting": "327.2 K", "value": "83.64 ± 2", "unit": "J/K/mol"}, {"measurement": "molar heat capacity at constant pressure", "setting": "328.2 K", "value": "85.11 ± 2", "unit": "J/K/mol"}]}]}
